Measured values from ChEMBL document CHEMBL1151504, “Structure-activity relationships of double-strand RGD peptides as GPIIb/IIIa receptor antogonists” (Bioorg Med Chem Lett, 1994).
Numbered stars: 1 amine (or outer) side, 2 acyl side, 3 side chain; on linkers, the order of the positions; unused ones are H or OH. Bridge positions count the residues as written; N and C are the ends. Square brackets hold non-standard residues; d marks the D form. Peptide text beside a SMILES is read from it. I, II: the chains in the order shown. * marks the point of attachment. Benzoyl(4-guanidino) = N=C(N)Nc1ccc(C(=O)*)cc1; X1 = NC(=O)c1cc(N[*:1])cc(N[*:2])c1; Adipoyl = O=C(CCCCC(=O)[*:2])[*:1]; Glutaryl = O=C(CCCC(=O)[*:2])[*:1]; Suc = O=C(CCC(=O)[*:2])[*:1]; X2 = O=C1Oc2ccccc2CC1C(=O)*; 3Abz = Nc1cccc(C(=O)O)c1; 4Abz = Nc1ccc(C(=O)O)cc1; 2Abz = Nc1ccccc1C(=O)O; Hexanoyl = CCCCCC(=O)*; Bz = O=C(c1ccccc1)*

Species on record: Homo sapiens
Experiment: In vitro inhibition of ADP induced human platelet aggregation in platelet rich plasma(PRP) and presence of Tris buffer.
Format: functional

Row | SMILES | IC50 [µM]
1 | NCC(=O)N[C@@H](CCCN=C(N)N)C(=O)NCC(=O)N[C@@H](CC(=O)O)C(=O)N[C@@H](Cc1ccccc1)C(=O)NCC(=O)Nc1cc(NC(=O)CNC(=O)[C@H](Cc2ccccc2)NC(=O)[C@H](CC(=O)O)NC(=O)CNC(=O)[C@H](CCCN=C(N)N)NC(=O)CN)cc(C(=O)NCC(=O)N[C@@H](CCCN=C(N)N)C(=O)NCC(=O)N[C@@H](CC(=O)O)C(=O)N[C@@H](Cc2ccccc2)C(N)=O)c1 | 33
2 | NC(=O)[C@H](CCCCNC(=O)[C@H](Cc1ccccc1)NC(=O)[C@H](CC(=O)O)NC(=O)CNC(=O)[C@@H](N)CCCN=C(N)N)NC(=O)[C@H](Cc1ccccc1)NC(=O)[C@H](CC(=O)O)NC(=O)CNC(=O)[C@@H](N)CCCN=C(N)N | 35
3 | NC(N)=NCCC[C@H](NC(=O)C1CC(NC(=O)[C@H](Cc2ccccc2)NC(=O)[C@H](CC(=O)O)NC(=O)CNC(=O)[C@@H](N)CCCN=C(N)N)CC(NC(=O)[C@H](Cc2ccccc2)NC(=O)[C@H](CC(=O)O)NC(=O)CNC(=O)[C@@H](N)CCCN=C(N)N)C1)C(=O)NCC(=O)N[C@@H](CC(=O)O)C(=O)N[C@@H](Cc1ccccc1)C(=O)O (stereo partly specified) | 22
4 | N=C(N)NCCC[C@H](NC(=O)c1ccccc1)C(=O)NCC(=O)N[C@@H](CC(=O)O)C(=O)N[C@@H](Cc1ccccc1)C(=O)NC1CC(NC(=O)[C@H](Cc2ccccc2)NC(=O)[C@H](CC(=O)O)NC(=O)CNC(=O)[C@H](CCCN=C(N)N)NC(=O)c2ccccc2)CC(C(=O)N[C@@H](CCCN=C(N)N)C(=O)NCC(=O)N[C@@H](CC(=O)O)C(=O)N[C@@H](Cc2ccccc2)C(=O)O)C1 (stereo partly specified) | 7.4
5 | NCC(=O)N[C@@H](CCCN=C(N)N)C(=O)NCC(=O)N[C@@H](CC(=O)O)C(=O)N[C@@H](Cc1ccccc1)C(=O)NCC(=O)Nc1ccccc1C(=O)NCC(=O)N[C@@H](CCCN=C(N)N)C(=O)NCC(=O)N[C@@H](CC(=O)O)C(=O)N[C@@H](Cc1ccccc1)C(=O)O (H-GRGDFG[2Abz]GRGDF-OH) | 63
6 | NCC(=O)N[C@@H](CCCN=C(N)N)C(=O)NCC(=O)N[C@@H](CC(=O)O)C(=O)N[C@@H](Cc1ccccc1)C(=O)NCC(=O)Nc1cccc(C(=O)NCC(=O)N[C@@H](CCCN=C(N)N)C(=O)NCC(=O)N[C@@H](CC(=O)O)C(=O)N[C@@H](Cc2ccccc2)C(=O)O)c1 (H-GRGDFG[3Abz]GRGDF-OH) | 19
7 | N=C(N)NCCC[C@H](NC(=O)CCCCC(=O)N[C@@H](CCCNC(=N)N)C(=O)NCC(=O)N[C@@H](CC(=O)O)C(=O)N[C@@H](Cc1ccccc1)C(=O)O)C(=O)NCC(=O)N[C@@H](CC(=O)O)C(=O)N[C@@H](Cc1ccccc1)C(=O)O (I: RGDF-OH / II: RGDF-OH; linker I:N-II:N via Adipoyl) | 14
8 | N=C(N)NCCC[C@H](NC(=O)CCCC(=O)N[C@@H](CCCNC(=N)N)C(=O)NCC(=O)N[C@@H](CC(=O)O)C(=O)N[C@@H](Cc1ccccc1)C(=O)O)C(=O)NCC(=O)N[C@@H](CC(=O)O)C(=O)N[C@@H](Cc1ccccc1)C(=O)O (I: RGDF-OH / II: RGDF-OH; linker I:N-II:N via Glutaryl) | 15
9 | N=C(N)NCCC[C@H](NC(=O)CCC(=O)N[C@@H](CCCNC(=N)N)C(=O)NCC(=O)N[C@@H](CC(=O)O)C(=O)N[C@@H](Cc1ccccc1)C(=O)O)C(=O)NCC(=O)N[C@@H](CC(=O)O)C(=O)N[C@@H](Cc1ccccc1)C(=O)O (I: RGDF-OH / II: RGDF-OH; linker I:N-II:N via Suc) | 15

More lines, in order of falling IC50, values ahead:

Row | IC50 [µM] | SMILES
10 | 50 | NC(=O)C1CC(NC(=O)[C@H](Cc2ccccc2)NC(=O)[C@H](CC(=O)O)NC(=O)CNC(=O)[C@@H](N)CCCN=C(N)N)CC(NC(=O)[C@H](Cc2ccccc2)NC(=O)[C@H](CC(=O)O)NC(=O)CNC(=O)[C@@H](N)CCCN=C(N)N)C1 (stereo partly specified)
11 | 35 | NCC(=O)N[C@@H](CCCN=C(N)N)C(=O)NCC(=O)N[C@@H](CC(=O)O)C(=O)N[C@@H](Cc1ccccc1)C(=O)NCC(=O)Nc1ccc(C(=O)NCC(=O)N[C@@H](CCCN=C(N)N)C(=O)NCC(=O)N[C@@H](CC(=O)O)C(=O)N[C@@H](Cc2ccccc2)C(=O)O)cc1 (H-GRGDFG[4Abz]GRGDF-OH)
12 | 13 | N=C(N)NCCC[C@@H](NC(=O)c1ccccc1C(=O)N[C@@H](CCCN=C(N)N)C(=O)NCC(=O)N[C@@H](CC(=O)O)C(=O)N[C@@H](Cc1ccccc1)C(=O)O)C(=O)NCC(=O)N[C@H](CC(=O)O)C(=O)N[C@H](Cc1ccccc1)C(=O)O
13 | 13 | NC(=O)c1cc(NC(=O)CNC(=O)[C@@H]2CCCN2C(=O)[C@H](Cc2ccccc2)NC(=O)[C@H](CC(=O)O)NC(=O)CNC(=O)[C@@H](N)CCCN=C(N)N)cc(NC(=O)CNC(=O)[C@@H]2CCCN2C(=O)[C@H](Cc2ccccc2)NC(=O)[C@H](CC(=O)O)NC(=O)CNC(=O)[C@@H](N)CCCN=C(N)N)c1 (I: H-RGDFPG / II: H-RGDFPG; linker I:C-II:C via X1)
14 | 4.1 | CC(=O)N[C@@H](CCCN=C(N)N)C(=O)NCC(=O)N[C@@H](CC(=O)O)C(=O)N[C@@H](Cc1ccccc1)C(=O)N1CCC[C@H]1C(=O)NCCCC[C@H](NC(=O)[C@@H]1CCCN1C(=O)[C@H](Cc1ccccc1)NC(=O)[C@H](CC(=O)O)NC(=O)CNC(=O)[C@H](CCCN=C(N)N)NC(C)=O)C(N)=O (I: Ac-RGDFPK-NH2 / II: Ac-RGDFP; amide I:6-II:C)
15 | 2.6 | N=C(N)NCCC[C@H](NC(=O)c1ccccc1)C(=O)NCC(=O)N[C@@H](CC(=O)O)C(=O)N[C@@H](Cc1ccccc1)C(=O)NCCCC[C@H](NC(=O)[C@H](Cc1ccccc1)NC(=O)[C@H](CC(=O)O)NC(=O)CNC(=O)[C@H](CCCN=C(N)N)NC(=O)c1ccccc1)C(N)=O
16 | 2.3 | CCCCCC(=O)N[C@@H](CCCN=C(N)N)C(=O)NCC(=O)N[C@@H](CC(=O)O)C(=O)N[C@@H](Cc1ccccc1)C(=O)NCCCC[C@H](NC(=O)[C@H](Cc1ccccc1)NC(=O)[C@H](CC(=O)O)NC(=O)CNC(=O)[C@H](CCCN=C(N)N)NC(=O)CCCCC)C(N)=O
17 | 2.2 | N=C(N)NCCC[C@H](NC(=O)c1ccccc1)C(=O)NCC(=O)N[C@@H](CC(=O)O)C(=O)N[C@@H](Cc1ccccc1)C(=O)N1CCC[C@H]1C(=O)NCCCC[C@H](NC(=O)[C@@H]1CCCN1C(=O)[C@H](Cc1ccccc1)NC(=O)[C@H](CC(=O)O)NC(=O)CNC(=O)[C@H](CCCN=C(N)N)NC(=O)c1ccccc1)C(N)=O (I: Bz-RGDFPK-NH2 / II: Bz-RGDFP; amide I:6-II:C)
18 | 2 | N=C(N)NCCC[C@H](NC(=O)C1Cc2ccccc2OC1=O)C(=O)NCC(=O)N[C@@H](CC(=O)O)C(=O)N[C@@H](Cc1ccccc1)C(=O)N1CCC[C@H]1C(=O)NCCCC[C@H](NC(=O)[C@@H]1CCCN1C(=O)[C@H](Cc1ccccc1)NC(=O)[C@H](CC(=O)O)NC(=O)CNC(=O)[C@H](CCCNC(=N)N)NC(=O)C1Cc2ccccc2OC1=O)C(N)=O (stereo partly specified) (I: X2-RGDFPK-NH2 / II: X2-RGDFP; amide I:6-II:C)
19 | 1.2 | CCCCCC(=O)N[C@@H](CCCN=C(N)N)C(=O)NCC(=O)N[C@@H](CC(=O)O)C(=O)N[C@@H](Cc1ccccc1)C(=O)N1CCC[C@H]1C(=O)NCCCC[C@H](NC(=O)[C@@H]1CCCN1C(=O)[C@H](Cc1ccccc1)NC(=O)[C@H](CC(=O)O)NC(=O)CNC(=O)[C@H](CCCN=C(N)N)NC(=O)CCCCC)C(N)=O (I: Hexanoyl-RGDFPK-NH2 / II: Hexanoyl-RGDFP; amide I:6-II:C)
20 | 0.35 | CCCCCC(=O)N[C@@H](CCCN=C(N)N)C(=O)NCC(=O)N[C@@H](CC(=O)O)C(=O)N[C@@H](Cc1ccccc1)C(=O)N1CCC[C@H]1C(=O)NCC(=O)Nc1cc(NC(=O)CNC(=O)[C@H]2CCCN2C(=O)[C@@H](Cc2ccccc2)NC(=O)[C@@H](CC(=O)O)NC(=O)CNC(=O)[C@@H](CCCN=C(N)N)NC(=O)CCCCC)cc(C(N)=O)c1
21 | 0.087 | N=C(N)NCCC[C@H](NC(=O)[C@H](CO)NC(=O)c1ccc(NC(=N)N)cc1)C(=O)NCC(=O)N[C@@H](CC(=O)O)C(=O)N[C@@H](Cc1ccccc1)C(=O)N1CCC[C@H]1C(=O)NCCCC[C@H](NC(=O)[C@@H]1CCCN1C(=O)[C@H](Cc1ccccc1)NC(=O)[C@H](CC(=O)O)NC(=O)CNC(=O)[C@H](CCCNC(=N)N)NC(=O)[C@H](CO)NC(=O)c1ccc(NC(=N)N)cc1)C(N)=O (I: {Benzoyl(4-guanidino)}-SRGDFPK-NH2 / II: {Benzoyl(4-guanidino)}-SRGDFP; amide I:7-II:C)
